Where “and” joins values, the source holds several entries; their conditions need not be identical. Equal entries are not always repeated.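 Protocol summary: plate cells (96-well), add compound at 5 concentrations, incubate 48 h, interpolate endpoints linearly. GI50: concentration for 50% inhibition of growth.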 Calls of active or inactive are those of the source. Rule as the data show it: active = GI50 up to about 1.1 µM and inactive = higher.
Tests used:
Assay in all cases: NCI tumour cell line growth inhibition, 48 h
[1] = test system: NCI-H522
[2] = test system: OVCAR-5
[3] = test system: HCT-116
[4] = test system: TK-10
[5] = test system: CCRF-CEM
[6] = test system: OVCAR-3
[7] = test system: A549
[8] = test system: Hs-578T
[9] = test system: HOP-62
[10] = test system: IGROV-1
[11] = test system: MDA-MB-231
[12] = test system: Malme-3M
[13] = test system: RPMI-8226
[14] = test system: NCI-H460
[15] = test system: BT-549
[16] = test system: KM12
[17] = test system: DU-145
[18] = test system: SNB-75
[19] = test system: MCF7
[20] = test system: SK-MEL-2

Measured: GI50

c1ccc2c(c1)CCN1CCc3c([nH]c4ccccc34)C21 (stereo not given)
inactive: [1] 34 µM | [2] 22.4 µM | [3] 24.2 µM | [4] 42 µM | [5] 31.5 µM | [6] 24 µM | [7] 37.1 µM | [8] 53.2 µM | [9] 36 µM | [10] 29.4 µM | [11] 35.3 µM | [12] 18.1 µM | [13] 23 µM | [14] 38.7 µM | [15] 27.3 µM | [16] 26.5 µM | [17] 40.6 µM | [18] 24.9 µM | [19] 63.7 µM | [20] 23 µM

COc1nc(N)c(/N=C/C(OC(C)=O)C(OC(C)=O)C(COC(C)=O)OC(C)=O)c(=O)n1C (stereo not given)
inactive: [1] > 100 µM | [2] > 100 µM | [3] > 100 µM | [4] > 100 µM | [5] > 100 µM and 62.2 µM | [6] > 100 µM | [7] > 100 µM | [8] > 100 µM | [9] > 100 µM | [10] > 100 µM | [11] > 100 µM | [12] > 100 µM | [13] > 100 µM | [14] > 100 µM | [15] > 100 µM | [16] > 100 µM | [17] > 100 µM | [18] > 100 µM | [19] > 100 µM | [20] > 100 µM

COC(=O)c1sc(C(=O)OC)c2c1CSC2
inactive: [1] 76.2 µM | [2] > 100 µM | [3] 97.9 µM | [4] > 100 µM | [5] > 100 µM | [6] > 100 µM | [7] > 100 µM | [8] 97.9 µM | [9] 47.6 µM | [10] > 100 µM | [11] > 100 µM | [12] > 100 µM | [13] > 100 µM | [14] > 100 µM | [15] > 100 µM | [16] > 100 µM | [17] > 100 µM | [18] 22.5 µM | [19] > 100 µM | [20] 55.8 µM

N#CC1=C(N)OC2=C(CCCc3ccccc32)C1c1ccc([N+](=O)[O-])cc1 (stereo not given)
inactive: [1] 8.22 µM | [2] 21.8 µM | [3] 12.8 µM | [4] 28.8 µM | [5] 4.52 µM | [6] 13.5 µM | [7] 19 µM | [8] 36.5 µM | [9] 17.2 µM | [10] 19.2 µM | [11] 26.9 µM | [12] 16.3 µM | [13] 1.85 µM | [14] 17.7 µM | [15] 2.91 µM | [16] 16.1 µM | [17] 10.1 µM | [18] 55 µM | [19] 16.7 µM | [20] 17.9 µM

CS(=O)(=O)NC12CCC(c3ccccc31)c1ccccc12
inactive: [1] > 100 µM | [2] > 100 µM | [3] > 100 µM | [4] > 100 µM | [5] > 100 µM | [6] > 100 µM | [7] > 100 µM | [8] > 100 µM | [9] > 100 µM | [10] > 100 µM | [11] > 100 µM | [12] > 100 µM | [13] > 100 µM | [14] > 100 µM | [15] > 100 µM | [16] > 100 µM | [17] > 100 µM | [18] > 100 µM | [19] > 100 µM | [20] > 100 µM

COC12C=CC(C=C1C#N)CC2.COC12C=CC(CC1)CC2=O (stereo not given)
inactive: [1] > 100 µM | [2] > 100 µM | [3] > 100 µM | [4] > 100 µM | [5] > 100 µM | [6] > 100 µM | [7] > 100 µM | [8] > 100 µM | [9] > 100 µM | [10] > 100 µM | [11] > 100 µM | [12] > 100 µM | [13] > 100 µM | [14] > 100 µM | [15] > 100 µM | [16] > 100 µM | [17] > 100 µM | [18] 67.8 µM | [19] > 100 µM | [20] > 100 µM

CC(NC1=CC(=O)c2ncccc2C1=O)C(O)c1ccccc1 (stereo not given)
inactive: [1] 7.66 µM | [2] 15.5 µM | [3] 3.6 µM | [4] 38 µM | [5] 5.75 µM | [6] 2.45 µM | [7] 3.03 µM | [8] 4.2 µM | [9] 4.83 µM | [10] 3.67 µM | [11] 2.41 µM | [12] 1.89 µM | [13] 13.4 µM | [14] 1.28 µM | [15] 1.85 µM | [16] 7.67 µM | [17] 6.22 µM | [18] 2.36 µM | [19] 2.31 µM | [20] 3.55 µM

Cc1cn(C2CC(N=[N+]=[N-])C(CO)O2)c(=O)n(CCCCO)c1=O (stereo not given)
inactive: [1] > 100 µM | [2] > 100 µM | [3] > 100 µM | [4] > 100 µM | [5] > 100 µM | [6] > 100 µM | [7] > 100 µM | [8] > 100 µM | [9] > 100 µM | [10] > 100 µM | [11] > 100 µM | [12] > 100 µM | [13] > 100 µM | [14] > 100 µM | [15] > 100 µM | [16] > 100 µM | [17] > 100 µM | [18] 88.3 µM | [19] > 100 µM | [20] > 100 µM

N#CC(NNC(=O)Cc1ccccc1)c1c(O)ccc2ccccc12 (stereo not given)
inactive: [1] 3.47 µM | [2] 13.9 µM | [3] 3.46 µM | [4] 20.3 µM | [5] 1.2 µM | [6] 2.99 µM | [7] 5.51 µM | [8] 7.64 µM | [9] 10.2 µM | [10] 5.31 µM | [11] 4.19 µM | [12] 4.4 µM | [13] 3.63 µM | [14] 4.25 µM | [15] 1.73 µM | [16] 4.02 µM | [17] 10.2 µM | [18] 8.47 µM | [19] 3.15 µM | [20] 2.92 µM

From ChEMBL document CHEMBL1201862, “PubChem BioAssay data set” (2004)
